# In patent US9133525B2, “Detection of DNA sequences as risk factors for HIV infection” (priority 2012, dated 2015):
# Test system: antibiotic sensitive microorganism associated with red blood cells
# Experiment: PCR amplification of DNA from red blood cells of HIV-positive patients with MSP2 Primer Pairs 1 and 2, before and after long-term antibiotic treatment
# Assay type: in vivo, human (HIV-positive patients)
# Description: Standard procedures for separating RBCs from buffy coat and other peripheral blood components are known. Peripheral blood was processed on a Ficoll gradient to separate the buffy coat from red blood cells. […] This lysate was prepared by repeated freeze-thawing of red blood cells isolated from the buffy coat, strong shaking by vortex, and a low speed centrifugation (1,500 g×10 mins). A pellet and supernatant fraction were obtained and tested. The primers described above only amplified DNA in the supernatant fraction, but not in the pellet.
# Five HIV-positive patients were maintained on their antiretroviral therapy, but received for at least three months a daily antibiotic treatment (azithromycin 250 mg/day or doxycycline 100 mg/day). Blood samples were fractionated to recover a red blood cell fraction on day 0 and after 3 months of antibiotic.
# Blood samples were obtained from African and European Patients who were HIV-negative or HIV-positive. Red blood cells were isolated from buffy coat and other blood components by separation on a Ficoll gradient as described above. […] Similar results were obtained using the primers described in Appendix 3. […] However, amplified DNA was detected in this patient using the Primer Pairs 1 and 2 shown in Appendix 2, but the amplified DNA bands were weaker than those for chronically-infected HIV-positive patients. […]
smiles,measurement,setting,value
CC[C@H]1OC(=O)[C@H](C)[C@@H](O[C@H]2C[C@@](C)(OC)[C@@H](O)[C@H](C)O2)[C@H](C)[C@@H](O[C@@H]2O[C@H](C)C[C@H](N(C)C)[C@H]2O)[C@](C)(O)C[C@@H](C)CN(C)[C@H](C)[C@@H](O)[C@]1(C)O [azithromycin],intensity of the bands amplified using these primers,"HIV-positive patients, long term antibiotic treatment for more than three months, Primer Pairs 1 and 2",decrease
same,amount of DNA amplified after 3 months of antibiotic treatment vs day 0,"five HIV-positive patients on antiretroviral therapy, daily azithromycin 250 mg/day or doxycycline 100 mg/day for at least three months, red blood cell fraction",significantly less
